The source of these data is patent US9309224B2 (Deciphera Pharmaceuticals, LLC, priority 2013, dated 2016).

Structures are written as SMILES. Where only a bound is given, the exact number is not on record here.

The test system of assay [1] is osteoclast precursors. As to the kind of experiment: Osteoclast tartrate-resistant acid phosphatase assay. Type of assay: cell-based. The settings on record: Osteoclast; 7-14 days, RANKL and M-CSF.
For assay [2], the target named is T1, unphosphorylated c-FMS kinase (uFMS, Seq. ID no. 1) (Homo sapiens, UniProt P07333).
T1 construct: purchased Millipore
T1 sequence (P07333 538-972): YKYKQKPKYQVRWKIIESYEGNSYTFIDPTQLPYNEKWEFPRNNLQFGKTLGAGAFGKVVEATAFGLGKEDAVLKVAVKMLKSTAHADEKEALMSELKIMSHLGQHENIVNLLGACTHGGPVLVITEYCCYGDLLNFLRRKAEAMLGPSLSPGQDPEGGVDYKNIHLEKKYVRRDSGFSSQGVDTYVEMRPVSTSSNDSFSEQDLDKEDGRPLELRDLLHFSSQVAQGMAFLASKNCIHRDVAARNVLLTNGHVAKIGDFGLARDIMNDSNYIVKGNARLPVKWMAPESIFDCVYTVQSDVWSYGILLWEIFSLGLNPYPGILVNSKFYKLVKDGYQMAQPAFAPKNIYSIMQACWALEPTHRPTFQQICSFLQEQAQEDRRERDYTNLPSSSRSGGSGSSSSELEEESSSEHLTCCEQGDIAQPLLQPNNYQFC
As to the kind of experiment: uFMS kinase assay (pyruvate kinase/lactate dehydrogenase coupled). The settings on record: ATP 500 μM. Type of assay: biochemical.
Protocol: In this assay, the oxidation of NADH (thus the decrease at A340 nm) was continuously monitored spectrophometrically. The reaction mixture (100 μL) contained FMS (purchased from Millipore) (10 nM), polyE4Y (1 mg/mL), MgCl2 (10 mM), pyruvate kinase (4 units), lactate dehydrogenase (0.7 units), phosphoenol pyruvate (1 mM), NADH (0.28 mM) and ATP (500 μM) in 90 mM Tris buffer containing 0.2% octyl-glucoside and 1% DMSO, pH 7.5. The inhibition reaction was started by mixing serial diluted test compound with the above reaction mixture. The absorption at 340 nm was monitored continuously for 4 hours at 30° C. on Synergy 2 plate reader. The reaction rate was calculated using the 3 to 4 h time frame. Percent inhibition was obtained by comparison of reaction rate with that of a control (i.e. in the absence of test compound). IC50 values were calculated from a series of percent inhibition values determined at a range of inhibitor concentrations using software routines as implemented in the GraphPad Prism software package.

The target in assay [3] is T2, unphosphorylated PDGFRβ kinase (uPDGFRβ, Seq. ID No. 3) (Homo sapiens, UniProt P09619).
T2 construct: purchased DeCode
As to the kind of experiment: Unphosphorylated PDGFRβ kinase assay (pyruvate kinase/lactate dehydrogenase coupled). Type of assay: biochemical. The settings on record: ATP 500 μM. From the text: Unphosyhorylated PDGFRβ (uPDGFRβkinase (Seq. ID No. 3) assay

For assay [4], the system named is M-NFS-60 cells. As to the kind of experiment: M-NFS-60 cell proliferation assay. Type of assay: cell-based. The settings on record: 67 h incubation, resazurin.
Protocol: M-NFS-60 Cell Proliferation Assay A serial dilution of test compound was dispensed into a 384-well black clear bottom plate (Corning, Corning, N.Y.). Two thousand five hundred cells were added per well in 50 μL complete growth medium. […] IC50 values were calculated from a series of percent inhibition values determined at a range of inhibitor concentrations using software routines as implemented in the GraphPad Prism software package.
In assay [5] the target is T3, phospho-FMS in THP-1 cells (Homo sapiens, UniProt P07333).
T3 construct: endogenous in cells; host or cells: THP-1 (ATCC TIB-202)
As to the kind of experiment: Phospho-FMS ELISA assay in THP-1 cells. Type of assay: cell-based. The following applies: 4 hours compound, M-CSF stimulated; read-out: pFMS inhibition in THP-1 cells. For orientation: ELISA stands for enzyme-linked immunosorbent assay.
Protocol: In a separate 96 well black clear bottom plate, one hundred and fifty thousand THP-1 cells were added per well in 100 μL in assay medium. Fifty microliters of diluted compound was then added to the cells. […] Lysates were prepared and used to perform the phospho-FMS ELISA as described by the manufacturer (catalog #DYC3268, R & D Systems, Minneapolis, Minn.). GraphPad Prism was used to calculate IC50 values obtained from data generated from the ELISA assay.

Assay [6] has as its target T4, unphosphorylated c-KIT kinase (uKIT, Seq. ID no. 2) (Homo sapiens, UniProt P10721).
T4 construct: uKit with N-terminal GST fusion used for
As to the kind of experiment: uKit kinase assay (pyruvate kinase/lactate dehydrogenase coupled). Type of assay: biochemical. The following applies: ATP 2000 μM.
Protocol: In this assay, the oxidation of NADH (thus the decrease at A340 nm) was continuously monitored spectrophometrically. […] The inhibition reaction was started by mixing serial diluted test compound with the above reaction mixture. The absorption at 340 nm was monitored continuously for 4 hours at 30° C. on Synergy 2 plate reader (BioTech).

T2 sequence (P09619 557-1105): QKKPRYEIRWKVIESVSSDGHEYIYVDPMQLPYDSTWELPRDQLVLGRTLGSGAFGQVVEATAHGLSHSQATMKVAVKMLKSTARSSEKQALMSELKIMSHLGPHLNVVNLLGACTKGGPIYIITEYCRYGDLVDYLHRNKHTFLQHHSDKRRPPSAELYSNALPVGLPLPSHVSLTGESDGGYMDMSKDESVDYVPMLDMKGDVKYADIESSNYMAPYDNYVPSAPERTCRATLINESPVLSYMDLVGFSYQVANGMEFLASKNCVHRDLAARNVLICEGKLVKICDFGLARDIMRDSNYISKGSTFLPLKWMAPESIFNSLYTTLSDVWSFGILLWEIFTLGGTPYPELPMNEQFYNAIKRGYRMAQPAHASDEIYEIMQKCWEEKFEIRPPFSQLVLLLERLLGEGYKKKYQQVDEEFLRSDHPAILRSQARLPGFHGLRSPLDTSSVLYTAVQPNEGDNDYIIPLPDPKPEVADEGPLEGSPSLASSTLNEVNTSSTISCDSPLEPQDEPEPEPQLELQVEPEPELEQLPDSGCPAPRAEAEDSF
T3 sequence (P07333 20-972): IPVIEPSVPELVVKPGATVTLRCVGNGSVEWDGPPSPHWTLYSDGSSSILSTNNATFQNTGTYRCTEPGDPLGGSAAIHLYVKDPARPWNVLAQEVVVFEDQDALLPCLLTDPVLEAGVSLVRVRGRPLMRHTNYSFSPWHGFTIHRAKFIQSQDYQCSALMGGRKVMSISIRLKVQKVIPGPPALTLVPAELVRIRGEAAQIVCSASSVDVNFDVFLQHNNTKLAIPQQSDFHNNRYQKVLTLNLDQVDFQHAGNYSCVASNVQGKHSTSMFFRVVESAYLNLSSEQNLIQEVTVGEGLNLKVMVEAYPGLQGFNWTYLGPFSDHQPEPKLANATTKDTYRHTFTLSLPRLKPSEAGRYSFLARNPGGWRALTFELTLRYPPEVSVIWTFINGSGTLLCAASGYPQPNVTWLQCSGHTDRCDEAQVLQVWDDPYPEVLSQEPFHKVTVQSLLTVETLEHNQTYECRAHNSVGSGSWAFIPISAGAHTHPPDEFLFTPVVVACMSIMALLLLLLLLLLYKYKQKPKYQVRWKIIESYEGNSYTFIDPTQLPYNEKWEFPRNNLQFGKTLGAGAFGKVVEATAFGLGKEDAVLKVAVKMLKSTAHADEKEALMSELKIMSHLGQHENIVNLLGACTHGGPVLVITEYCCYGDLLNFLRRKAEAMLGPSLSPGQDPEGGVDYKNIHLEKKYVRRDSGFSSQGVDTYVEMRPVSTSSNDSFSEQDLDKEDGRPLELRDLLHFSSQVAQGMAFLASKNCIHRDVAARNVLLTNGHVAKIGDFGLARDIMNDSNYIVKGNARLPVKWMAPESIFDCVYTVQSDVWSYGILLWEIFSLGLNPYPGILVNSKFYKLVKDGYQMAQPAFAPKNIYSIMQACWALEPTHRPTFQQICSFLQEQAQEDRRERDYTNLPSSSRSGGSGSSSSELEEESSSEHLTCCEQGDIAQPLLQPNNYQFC
T4 sequence (P10721 with tags, fused parts or gaps): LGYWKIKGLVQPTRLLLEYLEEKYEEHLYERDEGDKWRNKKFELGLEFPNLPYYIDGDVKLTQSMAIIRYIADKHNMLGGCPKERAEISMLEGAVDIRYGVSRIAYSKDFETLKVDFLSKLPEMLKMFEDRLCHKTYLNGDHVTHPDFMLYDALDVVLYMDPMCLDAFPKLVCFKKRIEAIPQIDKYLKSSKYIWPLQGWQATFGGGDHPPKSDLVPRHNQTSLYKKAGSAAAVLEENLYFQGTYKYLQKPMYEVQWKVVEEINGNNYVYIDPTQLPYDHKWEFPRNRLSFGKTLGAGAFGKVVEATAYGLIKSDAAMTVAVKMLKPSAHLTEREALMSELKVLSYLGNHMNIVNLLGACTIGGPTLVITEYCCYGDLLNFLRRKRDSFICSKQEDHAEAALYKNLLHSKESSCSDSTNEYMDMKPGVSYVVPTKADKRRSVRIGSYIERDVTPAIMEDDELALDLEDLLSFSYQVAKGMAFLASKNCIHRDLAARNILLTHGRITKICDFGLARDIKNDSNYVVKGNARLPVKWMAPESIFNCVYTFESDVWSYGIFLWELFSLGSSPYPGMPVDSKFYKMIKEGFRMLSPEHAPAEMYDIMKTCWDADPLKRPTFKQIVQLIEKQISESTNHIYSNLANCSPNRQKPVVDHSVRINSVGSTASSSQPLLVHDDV

For `CN(C)[C@H]1CCN(C(=O)Nc2cc(Oc3ccc(NC(=O)NC(=O)C(C)(C)C)nc3)ccn2)C1` [Example 47, (S)-3-(dimethylamino)-N-(4-((6-(3-pivaloylureido)pyridin-3-yl)oxy)pyridin-2-yl)pyrrolidine-1-carboxamide], the IC50 in assay [1] was under 10 nM; in assay [2], under 10 nM; in assay [3], 10 to 100 nM; in assay [4] it was under 10 nM; in assay [5] it was under 10 nM; in assay [6] it was over 1000 nM.

For `CC(C)(C)C(=O)NC(=O)Nc1ccc(Oc2ccnc(NC(=O)N3CCC3)c2)cn1` [Example 48, N-(4-((6-(3-pivaloylureido)pyridin-3-yl)oxy)pyridin-2-yl)azetidine-1-carboxamide], the IC50 in assay [1] was under 10 nM; in assay [2] it was under 10 nM; in assay [3], 10 to 100 nM; in assay [4], under 10 nM; in assay [5], under 10 nM; in assay [6], 100 to 1000 nM.

For `CNC(=O)c1cc(Oc2ccc(NC(=O)NC(=O)C(C)(C)OC)nc2)ccn1` [Example 58, 4-((6-(3-(2-methoxy-2-methylpropanoyl)ureido)pyridin-3-yl)oxy)-N-methylpicolinamide], the IC50 is 10 to 100 nM in assay [1]; 10 to 100 nM in assay [2]; over 1000 nM in assay [3]; 10 to 100 nM in assay [4]; under 10 nM in assay [5]; over 1000 nM in assay [6].

On to `Cc1nc(NC(=O)NC(=O)C(C)(C)C)ccc1Oc1ccnc(NC(=O)N2CCOCC2)c1` [Example 63, N-(4-((2-methyl-6-(3-pivaloylureido)pyridin-3-yl)oxy)pyridin-2-yl)morpholine-4-carboxamide], for which the IC50 in assay [1] was under 10 nM; in assay [2], under 10 nM; in assay [3], over 1000 nM; in assay [4], 10 to 100 nM; in assay [5], 10 to 100 nM; in assay [6], over 1000 nM.

As to `CNC(=O)c1cc(Oc2ccc(NC(=O)NC(=O)C3(OC)CCCC3)nc2)ccn1` [Example 64, 4-((6-(3-(1-methoxycyclopentanecarbonyl)ureido)pyridin-3-yl)oxy)-N-methylpicolinamide], the IC50 in assay [1] is 10 to 100 nM; in assay [2], under 10 nM; in assay [3], over 1000 nM; in assay [4], 10 to 100 nM; in assay [5], under 10 nM; in assay [6] it was 100 to 1000 nM.

As to `CN(C)C(=O)Nc1cc(Oc2ccc(NC(=O)NC(=O)C3(C)CCOCC3)nc2)ccn1` [Example 65, N-((5-((2-(3,3-dimethylureido)pyridin-4-yl)oxy)pyridin-2-yl)carbamoyl)-4-methyltetrahydro-2H-pyran-4-carboxamide], the IC50 in assay [1] is under 10 nM; in assay [2], under 10 nM; in assay [3] it was 100 to 1000 nM; in assay [4], 10 to 100 nM; in assay [5], 10 to 100 nM; in assay [6], 100 to 1000 nM.

Regarding `CC(C)C(=O)NC(=O)Nc1ccc(Oc2ccnc(NC(=O)N3CCN(C)CC3)c2)cn1` [Example 66, N-(4-((6-(3-isobutyrylureido)pyridin-3-yl)oxy)pyridin-2-yl)-4-methylpiperazine-1-carboxamide], the IC50 in assay [1] was under 10 nM; in assay [2], under 10 nM; in assay [3], 100 to 1000 nM; in assay [4] it was under 10 nM; in assay [5], under 10 nM; in assay [6] it was over 1000 nM.

As to `COC1(C(=O)NC(=O)Nc2ccc(Oc3ccnc(NC(C)=O)c3)cn2)CCCC1` [Example 67, N-((5-((2-acetamidopyridin-4-yl)oxy)pyridin-2-yl)carbamoyl)-1-methoxycyclopentanecarboxamide], the IC50 is under 10 nM in assay [1]; 10 to 100 nM in assay [2]; 10 to 100 nM in assay [3]; under 10 nM in assay [4]; under 10 nM in assay [5]; 100 to 1000 nM in assay [6].

Consider `CN(C)[C@@H]1CCN(C(=O)Nc2cc(Oc3ccc(NC(=O)NC(=O)C(C)(C)C)nc3)ccn2)C1` [Example 68, (R)-3-(dimethylamino)-N-(4-((6-(3-pivaloylureido)pyridin-3-yl)oxy)pyridin-2-yl)pyrrolidine-1-carboxamide], for which the IC50 in assay [1] is under 10 nM; in assay [2] it was under 10 nM; in assay [3], 10 to 100 nM; in assay [4] it was under 10 nM; in assay [5] it was under 10 nM; in assay [6], over 1000 nM.

As for `Cc1nc(NC(=O)NC(=O)C(C)(C)C)ccc1Oc1ccnc(NC(=O)N2CCN(C)CC2)c1` [Example 69, 4-methyl-N-(4-((2-methyl-6-(3-pivaloylureido)pyridin-3-yl)oxy)pyridin-2-yl)piperazine-1-carboxamide], the IC50 in assay [1] was under 10 nM; in assay [2], under 10 nM; in assay [3], over 1000 nM; in assay [4], under 10 nM; in assay [5], under 10 nM; in assay [6], over 1000 nM.

As for `CNC(=O)c1cc(Oc2ccc(NC(=O)NC(=O)C3(C)CCOCC3)nc2)ccn1` [Example 70, N-methyl-4-((6-(3-(4-methyltetrahydro-2H-pyran-4-carbonyl)ureido)pyridin-3-yl)oxy)picolinamide], the IC50 in assay [1] was 10 to 100 nM; in assay [2], 100 to 1000 nM; in assay [3], over 1000 nM; in assay [4], 100 to 1000 nM; in assay [5], 10 to 100 nM; in assay [6], over 1000 nM.

On to `Cc1nc(NC(=O)NC(=O)C(C)(C)C)ccc1Oc1ccnc(NC(=O)N2CCCC2)c1` [Example 71, N-(4-((2-methyl-6-(3-pivaloylureido)pyridin-3-yl)oxy)pyridin-2-yl)pyrrolidine-1-carboxamide], for which the IC50 in assay [1] was under 10 nM; in assay [2] it was under 10 nM; in assay [3], 100 to 1000 nM; in assay [4] it was under 10 nM; in assay [5], under 10 nM; in assay [6], over 1000 nM.

Consider `CN(C)C1CCN(C(=O)Nc2cc(Oc3ccc(NC(=O)NC(=O)C(C)(C)C)nc3)ccn2)CC1` [Example 76, 4-(dimethylamino)-N-(4-((6-(3-pivaloylureido)pyridin-3-yl)oxy)pyridin-2-yl)piperidine-1-carboxamide], for which the IC50 was under 10 nM in assay [1]; under 10 nM in assay [2]; 100 to 1000 nM in assay [3]; 10 to 100 nM in assay [4]; under 10 nM in assay [5]; over 1000 nM in assay [6].

Turning to `CN(C)C1CN(C(=O)Nc2cc(Oc3ccc(NC(=O)NC(=O)C(C)(C)C)nc3)ccn2)C1` [Example 77, 3-(dimethylamino)-N-(4-((6-(3-pivaloylureido)pyridin-3-yl)oxy)pyridin-2-yl)azetidine-1-carboxamide], the IC50 is under 10 nM in assay [1]; under 10 nM in assay [2]; 10 to 100 nM in assay [3]; under 10 nM in assay [4]; 10 to 100 nM in assay [5]; 100 to 1000 nM in assay [6].

On to `CNC(=O)Nc1cc(Oc2ccc(NC(=O)NC(=O)C(C)(C)C)nc2)ccn1` [Example 79, N-((5-((2-(3-methylureido)pyridin-4-yl)oxy)pyridin-2-yl)carbamoyl)pivalamide], for which the IC50 is 10 to 100 nM in assay [1]; under 10 nM in assay [2]; 100 to 1000 nM in assay [3]; 100 to 1000 nM in assay [4]; 10 to 100 nM in assay [5]; over 1000 nM in assay [6].

As to `CCN1CCN(C(=O)Nc2cc(Oc3ccc(NC(=O)NC(=O)C(C)(C)C)nc3)ccn2)CC1` [Example 80, 4-ethyl-N-(4-((6-(3-pivaloylureido)pyridin-3-yl)oxy)pyridin-2-yl)piperazine-1-carboxamide], the IC50 was under 10 nM in assay [1]; under 10 nM in assay [2]; 100 to 1000 nM in assay [3]; 10 to 100 nM in assay [4]; under 10 nM in assay [5]; over 1000 nM in assay [6].

`CN1CCN(C2CCN(C(=O)Nc3cc(Oc4ccc(NC(=O)NC(=O)C(C)(C)C)nc4)ccn3)CC2)CC1` [Example 81, 4-(4-methylpiperazin-1-yl)-N-(4-((6-(3-pivaloylureido)pyridin-3-yl)oxy)pyridin-2-yl)piperidine-1-carboxamide]: the IC50 in assay [1] is under 10 nM; in assay [2], under 10 nM; in assay [3], 100 to 1000 nM; in assay [4] it was 10 to 100 nM; in assay [5], under 10 nM; in assay [6], over 1000 nM.

With `COCCNC(=O)Nc1cc(Oc2ccc(NC(=O)NC(=O)C(C)(C)C)nc2)ccn1` [Example 82, N-((5-((2-(3-(2-methoxyethyl)ureido)pyridin-4-yl)oxy)pyridin-2-yl)carbamoyl)pivalamide], the IC50 in assay [1] was 10 to 100 nM; in assay [2], 10 to 100 nM; in assay [3], over 1000 nM; in assay [4], 100 to 1000 nM; in assay [5] it was under 10 nM; in assay [6] it was over 1000 nM.
